Measurements: patent publication US20040068006A1, “Method for preventing acute renal failure” (Critical Therapeutics, Inc., priority 2001, published 2004)

System: sepsis-induced acute renal failure
Experiment: Cecal ligation puncture (CLP) sepsis-induced acute renal failure in aged mice
Type: in vivo, mouse
Conditions: for HPLC creatinine: mean±SE
Description: Animal care followed NIH criteria for the care and use of laboratory animals in research. Young (7-8 weeks) and aged (42-44 weeks) male C57BL/6 mice [National Institutes of Health (NIH), Frederick, Md.] had free access to water and chow (NIH-07) Rodent chow, Zeigler Bros., Gardners, Pa.) before and after surgery.
Aged mice were anesthetized with 100 mg/kg ketamine, 10 mg/kg xylazine, and 1 mg/kg acepromazine IM. After laparotomy, a 5-0 silk ligature was placed 5 mm from the cecal tip. The cecum was punctured twice with a 21-gauge needle and gently squeezed to express a 1 mm column of fecal material. In sham operated animals, the cecum was located, but neither ligated nor punctured. The abdominal incision was closed in two layers with 6-0 nylon sutures. After surgery, one ml of pre-warmed normal saline was given IP. All animals received a broad spectrum antibiotic (imipenem/cilastatin; 25 mg/kg SC), then 1.5 ml of 3/4 saline was administered at 6 and 18 hr after surgery by SC injection. At the time of sacrifice, blood was collected from abdominal aorta for measurement of blood chemistries. The kidneys were harvested for histological and mechanistic studies.
Survival after surgery was assessed every 6 hr within the first 48 hr and then every 8 hr for 4 days. Antibiotic injection and fluid resuscitation were started 6 hr after CLP by SC injection, and then repeated every 12 hr for 4 days.
Animals received 0.4 ml of Ringers lactate (RL) [130 mM Na+, 4 mM K+, 2.7 mM Ca+, 109 mM Cl^−, and 28 mM lactate] or a similar volume of freshly-made Ringers ethyl pyruvate (EP) where EP (Sigma) was substituted for sodium lactate. A single dose was injected IP at 0, 6, or 12 hr after CLP surgery.
Serum levels of blood urea nitrogen (BUN), aspartate transaminase (AST), alanine transaminase (ALT), amylase, creatine kinase (CK) and lactate dehydrogenase (LDH) were measured using an autoanalyzer (Hitachi 917, Boehringer Mannheim, Indianapolis, MN). Serum creatinine were measured by a picric acid-based colorimetric kinetic autoanalyzer (Astra 8 autoanalyzer; Beckman Instruments, Fullerton, Calif.). Serum […] was also measured by high-performance liquid chromatography (HPLC) Johns et al., B Biomed. Sci. Appl. 759:343 (2001)). Acetonitrile was added to serum, centrifuged, and the supernatant fraction was dried, resuspended in 5 mM sodium acetate pH 5.1, and chromatrographed isocratically on a PRP-X200 cation exchange column (Hamilton, Reno Nev.) and detected by UV absorbance at 234 nm (Agilent Technologies, Palo Alto, Calif.).
10% Formalin-fixed and paraffin-embedded kidney sections were stained with periodic acid-Schiff reagent (PAS) or naphthol AS-D chloroacetate esterase (Sigma; St. Louis, Mo.). Histological changes in the cortex and in the outer stripe of the outer medulla (OSOM) were assessed by quantitative measurements of tissue damage. Tubular damage was defined as tubular epithelial swelling, loss of brush border, vacuolar degeneration, necrotic tubules, cast formation, and desquamation. The degree of kidney damage was estimated at 400× magnification using 5 randomly selected fields for each animal by the following criteria: 0, normal; 1, areas of damage <25% of tubules; 2, damage involving 25-50% of tubules, 3, damage involving 50 to 75% of tubules; 4, 75-100% of the area being affected.
All data are expressed as means±SE. Differences between groups were examined for statistical significance by ANOVA with a multiple comparison correction (StatView 4.5, Berkeley, Calif.; or SigmaStat 2.0, SPSS, San Rafael, Calif.). A P value <0.05 was accepted as statistically significant.

With `CCOC(=O)C(C)=O` [EP, ethyl pyruvate] the “tubular damage in cortex and OSOM” value (EP at 0, 6 or 12 hr after CLP, measured at 24 hr) was “significantly reduced the tubular damage”, the HPLC creatinine (higher dose (40 mg/kg) EP, single IP dose delayed until 6 hr after surgery) was 0.13 ± 0.01 mg/dL and the HPLC creatinine (higher dose (40 mg/kg) EP, single IP dose delayed until 12 hr after surgery) was 0.17 ± 0.03 mg/dL. The HPLC creatinine (single IP dose 8 mg/kg EP after CLP surgery (0 hr), RL vehicle 0.33±0.07 mg/dl) was 0.17 ± 0.02 mg/dL, the HPLC creatinine (single IP dose 40 mg/kg EP after CLP surgery (0 hr), RL vehicle 0.33±0.07 mg/dl) was 0.14 ± 0.02 mg/dL and the “renal injury as measured by BUN or HPLC creatinine” value (single dose of either 8 or 40 mg/kg EP after surgery, vs. RL) was “significantly prevented the renal injury”. For the same compound, the acute renal failure (summary statement referring to Example 1) was “inhibits acute renal failure”, the “therapeutic window for sepsis-induced acute renal failure” value (treatment start after CLP surgery) was at least 12 h and the “amount of protection for tubular injury score” value (without much change with delayed treatment (up to 12 hr)) was 60-80%.
